Measurements reported in patent US7723091B2 (priority 1999, dated 2010).
Values joined by “and” are separate entries in the source; they are usually repeats but may differ in a detail not shown here. Equal entries are not always repeated. Where two headings read alike, the source gives them in different places. Marks after values point to notes of the source that are not given here.

Experiments:
[1] = tested on: E. acervulina, E. maxima, and C. perfringens; type: in vivo, broiler chickens; conditions: Trial III; infected; no PI-PLC (T4 mannanase 100 MU/ton; T9 salinomycin 60 g/ton+BMD 50 g/ton)
[2] = tested on: E. acervulina, E. maxima and Clostridium perfringens; type: in vivo, broiler chickens; conditions: infected
[3] = tested on: Eimeria acervulina sporozoites; assay: In vitro invasion of BHK cells by Eimeria acervulina sporozoites; type: cell-based; conditions: B. cereus PI-PLC 0.0403 U/mL, recombinant 0.261 U/mL
Description: (§1) Eineria acervulina sporozoites or Eimeria tenella sporozoites and cultured baby hamster kidney (BHK) cells were prepared by published methods. See Augustine, Avian and Poultry Biology Reviews 1:113-122, 2000. For cell pretreatment, cell cultures were overlaid with dilutions of enzymes as described in Table 11, and examined for morphological changes from 5 to 45 min post overlay. After 45 minutes, the monolayer cultures were washed twice, then inoculated with untreated E. acervulina or E. tenella sporozoites. For application during infection, sporozoites were suspended in the appropriate dilution of the enzyme and inoculated immediately into the cell cultures. After 45 minutes incubation, cultures were fixed, stained, and the invasion was quantified.
(§2) Observations were made looking for changes in gross morphology of sporozoites or cells due to enzyme treatment. At the enzyme levels used in these experiments, no morphological change was noted. The sporozoite invasion of the cultured cells was measured after the two methods of enzyme treatment, as well as without enzyme treatment, by histological staining and microscopy procedures. See Augustine, supra.

[4] = tested on: Eimeria tenella sporozoites; assay: In vitro invasion of BHK cells by Eimeria tenella sporozoites; type: cell-based; conditions: B. cereus PI-PLC 0.0403 U/mL, recombinant 0.261 U/mL
Description: as §1, §2

[5] = tested on: E. coli MG1655; assay: Cylinder plate assay for antibiotic activity; type: cell-based; conditions: E. coli MG1655 testing strain
Description: Fermentation with Bacillus cereus (ATCC 7004) was conducted according to the method described in EXAMPLE 2 except that the initial volume was increased to 20 liters. A test for the presence of antibiotic was conducted with E. coli MG1655 as the testing strain with final fermentation broth or partially purified PI-PLC prepared according to the method described in EXAMPLES 3-5. The test was conducted as a.cylinder plate assay. See Brantner, Pharmazie 52(1):34-40, 1997.

[6] = tested on: Eimeria acervulina and Clostridium perfringens; type: in vivo, broiler chickens; conditions: Trial I
[7] = tested on: E. acervulina and Clostridium perfringens; type: in vivo, broiler chickens
[8] = Trial IV Test 13, Man. 5x at 506 MU/ton
[9] = Trial IV, PI-PLC 30 U/lb, Man. 121 MU/ton, BMD 50 g/ton, salinomycin 60 g/ton
[10] = Cell Pretreatment with Enzyme Followed by Wash, Test 1, mannanase 5100 U/mL
[11] = Cell Pretreatment with Enzyme Followed by Wash, Test 2, mannanase 5100 U/mL
[12] = mean of 4 replicates, infected, PI-PLC 0.34 g/ton pure basis (T3, T4) or Sacox 60 g/ton + BMD-50 50 g/ton (T2) in feed
[13] = single replicate (cage) values, infected, PI-PLC 0.34 g/ton pure basis (T3, T4) or Sacox 60 g/ton + BMD-50 50 g/ton (T2) in feed
[14] = Trial II T4 (Rec), T7 (Wt), infected, 10 U/lb
[15] = Application of Enzyme During Infection, Test 2, listed as PI-PLC from B. cereus
[16] = Cell Pretreatment with Enzyme Followed by Wash, Test 1, mannanase 5100 U/mL, listed as PI-PLC from B. cereus
[17] = Cell Pretreatment with Enzyme Followed by Wash, Test 2, mannanase 5100 U/mL, listed as PI-PLC from B. cereus

**Q.** Which results are given for endo-1,4- -D-mannanase [β-mannanase]?
**A.** Feed Consumption Day 0-21 [1]: 10.787^abc; Feed Consumption Day 8-21 [1]: 8.435^abc; Feed Conversion Day 0-21 [1]: 1.501^cd; Feed Conversion Day 8-21 [1]: 1.536^c; Lesion Scores E. acer. [1]: 1.16^ab; Lesion Scores E. max. [1]: 1.44^ab; Live Wt. Day 21 [1]: 0.652^bc; Weight AF/G Treatment (weight adjusted feed conversion) [1]: 1.465; Weight Gain Day 0-21 [1]: 0.611^bc; Weight Gain Day 8-21 [1]: 0.490^b; Feed Conversion Day 0-21 [2, 8]: 1.740; Feed Conversion Day 8-21 [2, 8]: 1.813; Lesion Score E. acer. Upper [2, 8]: 2.13; Lesion Score E. max. Middle [2, 8]: 2.00; Live Weight Day 21 [2, 8]: 0.471; Weight Gain Day 0-21 [2, 8]: 0.437; Weight Gain Day 8-21 [2, 8]: 0.339; Feed Conversion Day 0-21 [2, 9]: 1.803; Feed Conversion Day 8-21 [2, 9]: 1.849; Lesion Score E. acer. Upper [2, 9]: 1.94; Lesion Score E. max. Middle [2, 9]: 1.34; Live Weight Day 21 [2, 9]: 0.483; Weight Gain Day 0-21 [2, 9]: 0.433; Weight Gain Day 8-21 [2, 9]: 0.338; Invasion counts (mean ± standard error of the mean) [3, 10]: 16 ± 1^b; Invasion counts (mean ± standard error of the mean) [3, 11]: 29 ± 2^ab; Invasion counts (mean ± standard error of the mean) ([4]; Application of Enzyme During Infection, Test 1, mannanase 5100 U/mL): 46 ± 6^ab; Invasion counts (mean ± standard error of the mean) [4, 10]: 35 ± 1^b; Invasion counts (mean ± standard error of the mean) [4, 11]: 19 ± 5^a

**Q.** What does the source list for “Bacitracin methylene disalicylate [reference compound]”?
**A.** Feed Conversion Day 0-21 [2, 9]: 1.707; Feed Conversion Day 8-21 [2, 9]: 1.770; Lesion Score E. acer. Upper [2, 9]: 2.25; Lesion Score E. max. Middle [2, 9]: 1.94; Live Weight Day 21 [2, 9]: 0.490; Weight Gain Day 0-21 [2, 9]: 0.453; Weight Gain Day 8-21 [2, 9]: 0.352

**Q.** How did the “clearing zone indicating antibiotic activity” value [5] turn out when “phosphatidylinositol specific phospholipase C [Wild type PI-PLC]” was run?
**A.** No clearing zone

**Q.** What about the “performance compared with the Salinomycin+BMD treatment” value ([6]; by all criteria (Tables 4-5)) of the same compound?
**A.** worked as well as or better than the Salinomycin+BMD treatment

**Q.** What about the “Average Body Weight at 21 Days, Mean” value [6, 12] of the same compound?
**A.** 378.71 g and 373.14 g

**Q.** What about the “Average Feed Conversion (0-21 days) Corrected for Weight of Mortality Birds, Mean” value [6, 12] of the same compound?
**A.** 1.425 and 1.419

**Q.** What about the “Average Body Weight at 21 Days” value [6, 13] of the same compound?
**A.** 377.83 g and 366.67 g and 383.83 g and 361.17 g and 378.83 g and 361.33 g and 374.33 g and 403.40 g

**Q.** What about the “Average Feed Conversion (0-21 days) Corrected for Weight of Mortality Birds” value [6, 13] of the same compound?
**A.** 1.438 and 1.404 and 1.407 and 1.445 and 1.423 and 1.421 and 1.432 and 1.406

**Q.** What about the “8-21 Day Feed Conversion (Corrected)” value [7, 14] of the same compound?
**A.** 1.876

**Q.** And the “8-21 Day Weight Gain” value [7, 14]?
**A.** 298.98

**Q.** And the “Average Intestinal Lesion Score” value [7, 14]?
**A.** 1.267

**Q.** And the “effectiveness compared with recombinant counterpart” value ([7]; Trial II, same concentration (10 U/lb))?
**A.** did not work as effectively as its recombinant counterpart

**Q.** What about the “Invasion counts (mean ± standard error of the mean)” value ([3]; Application of Enzyme During Infection, Test 1, listed as PI-PLC from B. cereus) of the same compound?
**A.** 33 ± 3^b

**Q.** And the “Invasion counts (mean ± standard error of the mean)” value [3, 15]?
**A.** 25 ± 2^ab

**Q.** What about the “Invasion counts (mean ± standard error of the mean)” value [3, 16] of the same compound?
**A.** 15 ± 1^b

**Q.** What about the “Invasion counts (mean ± standard error of the mean)” value [3, 17] of the same compound?
**A.** 26 ± 1^ab

**Q.** And the “Invasion counts (mean ± standard error of the mean)” value ([4]; Application of Enzyme During Infection, Test 1, mannanase 5100 U/mL, listed as PI-PLC from B. cereus)?
**A.** 52 ± 13^ab

**Q.** What about the “Invasion counts (mean ± standard error of the mean)” value [4, 15] of the same compound?
**A.** 37 ± 2^ab

**Q.** What about the “Invasion counts (mean ± standard error of the mean)” value [4, 16] of the same compound?
**A.** 38 ± 2^b

**Q.** What about the “Invasion counts (mean ± standard error of the mean)” value [4, 17] of the same compound?
**A.** 21 ± 2^a

**Q.** What does the source list for `CC[C@@H](C(=O)[C@@H](C)[C@@H](O)[C@H](C)[C@@H]1O[C@@H]([C@@H](CC)C(=O)O)CC[C@@H]1C)[C@H]1O[C@]2(C=C[C@@H](O)[C@]3(CC[C@@](C)([C@H]4CC[C@](O)(CC)[C@H](C)O4)O3)O2)[C@H](C)C[C@@H]1C` [S, Salinomycin, reference compound]?
**A.** Feed Conversion Day 0-21 [2, 9]: 1.709; Feed Conversion Day 8-21 [2, 9]: 1.719; Lesion Score E. acer. Upper [2, 9]: 1.00; Lesion Score E. max. Middle [2, 9]: 1.09; Live Weight Day 21 [2, 9]: 0.496; Weight Gain Day 0-21 [2, 9]: 0.458; Weight Gain Day 8-21 [2, 9]: 0.368
